In patent US20170015649A1, “N-Thio-anthranilamid compounds and their use as pesticides” (BASF SE, priority 2005, published 2017):

Columns and labels:
[1] = system: Diamond Back Moth (Plutella xylostella); test: Activity against diamond back moth, cabbage leaf disk dip; format: in vivo; conditions: foliar, 300 ppm, leaf disk dipped, third instar larvae, after 72 h, read-out: mortality
Method: The active compounds were formulated in 50:50 acetone:water and 0.1% (vol/vol) Alkamuls EL 620 surfactant. A 6 cm leaf disk of cabbage leaves was dipped in the test solution for 3 seconds and allowed to air dry in a Petri plate lined with moist filter paper. The leaf disk was inoculated with 10 third instar larvae and kept at 25-27° C. and 50-60% humidity for 3 days. Mortality was assessed after 72 h of treatment.

[2] = system: Silverleaf Whitefly (Bemisia argentifolii); test: Activity against silverleaf whitefly, cotton cotyledon dip; format: in vivo; conditions: 72 h, cotyledons dipped, adults, 3 days after treatment
Method: (§1) The active compounds were formulated in 50:50 acetone:water and 100 ppm Kinetic™ surfactant.
Selected cotton plants were grown to the cotyledon state (one plant per pot). The cotyledons were dipped into the test solution to provide complete coverage of the foliage and placed in a well-vented area to dry. Each pot with treated seedling was placed in a plastic cup and 10 to 12 whitefly adults (approximately 3-5 day old) were introduced. The insects were collected using an aspirator and an 0.6 cm, non-toxic Tygon™ tubing (R-3603) connected to a barrier pipette tip. The tip, containing the collected insects, was then gently inserted into the soil containing the treated plant, allowing insects to crawl out of the tip to reach the foliage for feeding. The cups were covered with a reusable screened lid (150 micron mesh polyester screen PeCap from Tetko Inc). Test plants were maintained in the holding room at about 25° C. and 20-40% relative humidity for 3 days avoiding direct exposure to the fluorescent light (24 hour photoperiod) to prevent trapping of heat inside the cup. Mortality was assessed 3 days after treatment of the plants.

[3] = system: Tobacco Budworm (Heliothis virescens); test: whole plant or invertebrate; conditions: 144 h
[4] = system: Mediterranean Fruitfly (Ceratitis capitata); test: Activity against Mediterranean fruitfly, eggs in microtiterplates; format: in vivo; conditions: 144 h, eggs sprayed with 5 μl test solution, 6 days
Method: 50 to 80 eggs were placed into microtiterplates filled with 0.5% agar-agar and 14% diet in water. […] Mortality was assessed on the basis of the agility of the hatched larvae. Tests were replicated 2 times.

[5] = system: Cotton Aphid (Aphis gossypii); test: Activity against cotton aphid, cotton cotyledon dip; format: in vivo; conditions: 120 h, cotyledons dipped, after 5 days
Excerpt: as §1
Cotton plants at the cotyledon stage (one plant per pot) were infested by placing a heavily infested leaf from the main colony on top of each cotyledon. The aphids were allowed to transfer to the host plant overnight, and the leaf used to transfer the aphids was removed. The cotyledons were dipped in the test solution and allowed to dry. After 5 days, mortality counts were made.

[6] = system: Vetch Aphid (Megoura viciae); test: Activity against vetch aphid, bean leaf disks; format: in vivo; conditions: foliar, 144 h, 2500 ppm, leaf disks sprayed with 2.5 μl, 6 days, compared to 0% mortality of untreated controls, read-out: mortality
Method: Bean leaf disks were placed into microtiterplates filled with 0.8% agar-agar and 2.5 ppm OPUS™. The leaf disks were sprayed with 2.5 μl of the test solution and 5 to 8 adult aphids were placed into the microtiterplates which were then closed and kept at 22-24° C. and 35-45% under fluorescent light for 6 days. Mortality was assessed on the basis of vital, reproduced aphids. Tests were replicated 2 times.

[7] = system: Southern Armyworm (Spodoptera eridania), 2nd Instar Larvae; test: whole plant or invertebrate; format: in vivo; conditions: in Phaseolus lunatus, foliar, 120 h, 300 ppm, leaf dipped, at 5 days, read-out: mortality
Method: The active compounds were formulated for testing the activity against insects and arachnids as a 10.000 ppm solution in a mixture of 35% acetone and water, which was diluted with water, if needed.
A Sieva lima bean leaf was dipped in the test solution and allowed to dry. The leaf was then placed in a petri dish containing a filter paper on the bottom and ten 2nd instar caterpillars. At 5 days, observations are made of mortality and reduced feeding.

[8] = system: Boll Weevil (Anthonomus grandis); test: Activity against boll weevil, eggs in microtiterplates; format: in vivo; conditions: eggs sprayed with 20 μl test solution, 3 to 5 days
Method: 10 to 15 eggs were placed into microtiterplates filled with 2% agar-agar in water and 300 ppm formaline. […] Mortality was assessed on the basis of the remaining unhatched eggs or larvae on the agar surface and/or quantity and depth of the digging channels caused by the hatched larvae. Tests were replicated 2 times.

Row | Compound | mortality at 300 ppm [1] | mortality at 300 ppm [2] | mortality at 2500 ppm [3] | mortality at 2500 ppm [4] | mortality at 300 ppm [5] | mortality at 2500 ppm [6] | mortality at 300 ppm [7] | mortality at 2500 ppm [8]
1 | Cc1cc(Cl)cc(C(=O)N=S(C)C)c1NC(=O)c1cc(C(F)(F)F)nn1-c1ncccc1Cl [I.3-8] | > 75% | > 90% | > 75% | > 75% | > 50% | > 75% | > 75% | > 75%
2 | Cc1cc(I)cc(C(=O)N=S(C)C)c1NC(=O)c1cc(Br)nn1-c1ncccc1Cl [I.3-22] | > 75% | > 90% | > 75% | > 75% | > 50% | > 75% | > 75% | > 75%
3 | Cc1cc(I)cc(C(=O)N=S(C)C)c1NC(=O)c1cc(C(F)(F)F)nn1-c1ncccc1Cl [I.3-23] | > 75% | > 90% | > 75% | > 75% | > 50% | > 75% | > 75% | > 75%
4 | Cc1cccc(C(=O)N=S(C)C)c1NC(=O)c1cc(C(F)(F)F)nn1-c1ncccc1Cl [I.3-24] | > 75% | – | > 75% | > 75% | > 50% | > 75% | > 75% | > 75%
5 | CCS(C)=NC(=O)c1cc(Cl)cc(C)c1NC(=O)c1cc(Br)nn1-c1ncccc1Cl (stereo not shown) [I.3-25] | > 75% | > 90% | > 75% | > 75% | > 50% | > 75% | > 75% | > 75%
6 | CCS(C)=NC(=O)c1cccc(C)c1NC(=O)c1cc(Br)nn1-c1ncccc1Cl (stereo not shown) [I.3-26] | > 75% | > 90% | > 75% | > 75% | > 50% | > 75% | > 75% | > 75%
7 | CCS(C)=NC(=O)c1cc(I)cc(C)c1NC(=O)c1cc(Br)nn1-c1ncccc1Cl (stereo not shown) [I.3-27] | > 75% | > 90% | > 75% | > 75% | > 50% | > 75% | > 75% | > 75%
8 | CCS(C)=NC(=O)c1cc(Cl)cc(C)c1NC(=O)c1cc(C(F)(F)F)nn1-c1ncccc1Cl (stereo not shown) [I.3-28] | > 75% | > 90% | > 75% | > 75% | > 50% | > 75% | > 75% | > 75%
9 | CCS(C)=NC(=O)c1cccc(C)c1NC(=O)c1cc(C(F)(F)F)nn1-c1ncccc1Cl (stereo not shown) [I.3-29] | > 75% | – | > 75% | > 75% | > 50% | > 75% | > 75% | > 75%
10 | CCS(C)=NC(=O)c1cc(I)cc(C)c1NC(=O)c1cc(C(F)(F)F)nn1-c1ncccc1Cl (stereo not shown) [I.3-30] | > 75% | > 90% | > 75% | > 75% | > 50% | > 75% | > 75% | > 75%
11 | Cc1cc(C#N)cc(C(=O)N=S(C)C)c1NC(=O)c1cc(C(F)(F)F)nn1-c1ncccc1Cl [I.3-55] | > 75% | – | > 75% | > 75% | – | > 75% | – | > 75%
12 | Cc1cc(C#N)cc(C(=O)N=S(C)C)c1NC(=O)c1cc(Br)nn1-c1ncccc1Cl [I.3-60] | > 75% | – | – | – | – | – | – | –
13 | CCS(C)=NC(=O)c1cc(C#N)cc(C)c1NC(=O)c1cc(Br)nn1-c1ncccc1Cl (stereo not shown) [I.3-61] | > 75% | – | – | – | – | – | – | –
14 | Cc1cc(Cl)cc(C(=O)N=S2(=O)CCCCC2)c1CC(=O)c1cc(Br)nn1-c1ccccc1Cl [I.4-22, 2-{2-[5-Bromo-2-(2-chloro-phenyl)-2H-pyrazol-3-yl]-2-oxo-ethyl}-5-chloro-3-methyl-N-(1-oxo-hexahydro-1lambda*6*-thiopyran-1-ylidene)-benzamide] | > 75% | – | > 75% | > 75% | – | > 75% | > 75% | > 75%
